B1: Flt-3 ligand (protein, UniProt P49771 27-235, looked up)
Fms-related tyrosine kinase 3 …: TQDCSFQHSPISSDFAVKIRELSDYLLQDYPVTVASNLQDEELCGGLWRLVLAQRWMERLKTVAGSKMQGLLERVNTEIHFVTKCAFQPPPSCLRFVQTNISRLLQETSEQLVALKPWITRQNFSRCLELQCQPDSSTLPPPWSPRPLEATAPTAPQPPLLLLLLLPVGLLLLAAAWCLHWQRTRRRTPRPGEQVPPVPSPQDLLLVEH
notes: recombinant human growth factor
B2: IL-6 sR: IL-6 sR (soluble receptor), purchased from R&D systems (protein, UniProt P08887 20-365, looked up)
extracellular domain: LAPRRCPAQEVARGVLTSLPGDSVTLTCPGVEPEDNATVHWVLRKPAAGSHPSRWAGMGRRLLLRSVQLHDSGNYSCYRAGRPAGTVHLLVDVPPEEPQLSCFRKSPLSNVVCEWGPRSTPSLTTKAVLLVRKFQNSPAEDFQEPCQYSQESQKFSCQLAVPEGDSSFYIVSMCVASSVGSKFSKTQTFQGCGILQPDPPANITVTAVARNPRWLSVTWQDPHSWNSSFYRLRFELRYRAERSKTFTTWMVKDLQHHCVIHDAWSGLRHVVQLRAQEEFGQGEWSEWSPEAMGTPWTESRSPPAENEVSTPMQALTTNKDDDNILFRDSANATSLPVQDSSSVPLP
modifications: extracellular domain
notes: IL-6 sR (soluble receptor), purchased from R&D systems
B3: granulocyte colonystimulating factor (protein, UniProt P09919 31-207, looked up)
Granulocyte …: TPLGPASSLPQSFLLKCLEQVRKIQGDGAALQEKLVSECATYKLCHPEELVLLGHSLGIPWAPLSSCPSQALQLAGCLSQLHSGLFLYQGLLQALEGISPELGPTLDTLQLDVADFATTIWQQMEELGMAPALQPTQGAMPAFASAFQRRAGGVLVASHLQSFLEVSYRVLRHLAQP
notes: as for B1

Experiments:
WBC = test: Ex vivo expansion culture of UCB CD133+/CD34+ cells, WBC growth (cell density at day 7); assay type: cell-based, human; conditions: for regression coefficient of first-order model, Eq. (6): from Table 7, IMDM containing TISF; for regression coefficient of first-order model, Eq. (8): from Table 8, cytokine-containing medium; for effect on WBC growth: per Eq. (2), serum-containing IMDM; for regression coefficient of first-order model, Eq. (4): from Table 5, serum-containing medium, +1 = 10 ng/ml
Method: (§1) The UCB of full-termed healthy newborns, included uneventful vaginal births or cesarean sections, was harvested with a standard 250-ml blood bag containing citrate-phosphate-dextrose-adenine anticoagulant (Terumo, Shibuya-ku, Tokyo, Japan).
(§2) Buffy coat cells were obtained from UCB samples by centrifugation (700×g for 20 min), and were diluted with an equal volume of wash buffer (Dulbecco's phosphate buffered saline (D-PBS, Sigma, St. Louis, Mo.) contain 2 mM EDTA (Sigma)). Then the Buffy coat cells were layered onto Ficoll-Paque (ρ=1.077 g/ml, Amersham Biosciences, Uppsala, Sweden) density gradients to deplete red blood cells (RBC) (700×g for 40 min). The mononuclear cell (MNC) interface was collected, diluted into four volumes of wash buffer, and centrifuged to pellet the cells (700×g for 10 min). The MNC pellet was washed twice and resuspended in MACS buffer (D-PBS contained 0.5% bovine serum albumin (BSA, Sigma) and 2 mM EDTA) for CD133<+> cell purification. CD133<+> cord blood cells were isolated using the Miltenyi VarioMACS device (Miltenyi Biotec, Bergisch Gladbach, Germany), according to the manufacturer's instruction. Briefly, UCB MNC were incubated for 30 min at 4° C. with human IgG to block the Fc receptors and mouse monoclonal antibody to human CD133 microbead (Miltenyi Biotec). Labeled cells were applied to magnetic column (LS column, Miltenyi Biotec). Then, unbound cells were washed out, and CD133<+> cells were eluted from the column with MACS buffer. To improve the purity of the CD133+ (or CD34<+>) cells, a secondary purification cycle was performed with the same way. Then the cells were sampled for CD34<+> analysis to determine yield, purity and viability and assayed for colony-forming cells (CFC) as day 0 for control. To expand cells, CD133<+> cells were seeded at a concentration of 5×10^4 cells/ml in 24-well plate (1 ml per well, Falcon, N.J.) with variable serum substitutes, cytokines and medium according to experiment design. After 7 days, the cells were analyzed to compare with the day 0 control (all experiments were repeated at least four times).
(§3) Two-level factorial design followed the method of steepest ascent was carried out to find the optimal concentration of serum substitutes and cytokines for CD34<+> cells expansion. Fractional and full factorial design data were regressed by SPSS software (SPSS Inc. In: SPSS for Windows, base system user's guide. Release 6.0. Chicago, Ill.: SPSS Inc.; 1993. p. 235-47) to obtain the first order polynomial. Its statistical significance was determined by an F-test and the significance of the regression coefficients was analyzed by a t-test. The polynomial takes the form of White blood cell or CD34<+> cell (cells/ml)=β0+βiXi (1) where β's are the regression constants and X's are coded variables for the tested additives.

[1] = test system: CD34<+> hematopoietic cells; test: Ex vivo expansion culture of UCB CD133+/CD34+ cells, CD34+ cell growth by flow cytometry (cell density at day 7); assay type: cell-based, human; conditions: for regression coefficient of first-order model, Eq. (7): from Table 7, IMDM containing TISF; for regression coefficient of first-order model, Eq. (9): from Table 8, cytokine-containing medium; for effect on CD34<+> cell growth/expansion: per Eq. (3), serum-containing IMDM; for regression coefficient of first-order model, Eq. (5): from Table 5, +1 = 10 ng/ml
Method: as §1, §2
Cells before and after expanding culture were analyzed by two-color flow cytometry on a FACSCaliber analyzer (Becton-Dickinson, NJ, USA). About 1×10^6 cells were stained with FITC-conjugated anti-human CD45 and Peconjugated anti-human CD34, and gated for CD45<+>CD34<+> cells with low side scatter, according to the CD34 enumeration protocols developed by the International Society of Hematotherapy and Graft Engineering (ISHAGE) (Sutherland Dr, et al, J Hematother 1996; 5:231-8). A replicate sample was stained with FITC-antiCD45 and PE-mouse IgG1 as an isotype control to ensure specificity.
as §3

[2] = per Eqs. (6) and (7), serum substitutes in IMDM containing TISF
[3] = per Eqs. (8) and (9), serum substitutes in serum-free medium
[4] = 2^9−5 fractional factorial design in IMDM containing BIT2 (data not shown)
[5] = per Eqs. (10) and (11), serum-free IMDM + BIT2
[6] = per Eqs. (4) and (5), serum-containing medium

| Molecule | regression coefficient of first-order model, Eq. (6) (WBC) | regression coefficient of first-order model, Eq. (8) (WBC) | regression coefficient of first-order model, Eq. (7) [1] | regression coefficient of first-order model, Eq. (9) [1] | effect on WBC and CD34<+> cell growth [1, 2] | effect on WBC and CD34<+> cell growth [1, 3] | effect on WBC and CD34<+> cell growth [1, 4] | effect on CD34<+> cell growth/expansion [1] | effect on WBC and CD34<+> cell growth [1, 5] | effect on WBC growth (WBC) | regression coefficient of first-order model, Eq. (4) (WBC) | regression coefficient of first-order model, Eq. (5) ([1]; serum-containing medium) | effect on WBC and CD34<+> cell growth [1, 6] |
| --- | --- | --- | --- | --- | --- | --- | --- | --- | --- | --- | --- | --- | --- |
| C[C@]12CCC(=O)C=C1CC[C@@H]1[C@@H]2[C@@H](O)C[C@@]2(C)[C@H]1CC[C@]2(O)C(=O)CO [HC, hydrocortisone, reference compound] | 0.5 10^5 WBC cells/ml |  |  |  |  |  |  |  |  |  |  |  |  |
| OCCS [Trial 2-ME, 2-mercaptoethanol] | 0.875 10^5 WBC cells/ml | 0.069 10^6 WBC cells/ml | 0.311 10^5 CD34<+> cells/ml | 0.025 10^6 CD34<+> cells/ml | can stimulate both WBC and CD34<+> cell growth | could promote WBC and CD34<+> cell growth instead of serum |  |  |  |  |  |  |  |
| IL-6: recombinant human interleukin-6, purchased from R&D systems |  |  |  |  |  |  | could facilitate WBC and CD34<+> cell growth | less positive effects than TPO, IL-3, SCF and FL | positively affected WBC and CD34<+> cell growth |  |  |  |  |
| Transferrin [TF] |  | 0.7 10^6 WBC cells/ml | 0.120 10^5 CD34<+> cells/ml | 0.303 10^6 CD34<+> cells/ml | can stimulate both WBC and CD34<+> cell growth | could promote WBC and CD34<+> cell growth instead of serum |  |  |  |  |  |  |  |
| bovine serum albumin [BSA] | 2.625 10^5 WBC cells/ml | 0.362 10^6 WBC cells/ml | 0.945 10^5 CD34<+> cells/ml | 0.302 10^6 CD34<+> cells/ml | can stimulate both WBC and CD34<+> cell growth | could promote WBC and CD34<+> cell growth instead of serum |  |  |  |  |  |  |  |
| granulocyte-macrophage colony-stimulating factor [GM-CSF] |  |  |  |  |  |  | could facilitate WBC and CD34<+> cell growth | negative | positively affected WBC and CD34<+> cell growth | positive |  |  |  |
| insulin | 1.250 10^5 WBC cells/ml | 0.131 10^6 WBC cells/ml | 0.231 10^5 CD34<+> cells/ml | 0.053 10^6 CD34<+> cells/ml | can stimulate both WBC and CD34<+> cell growth | could promote WBC and CD34<+> cell growth instead of serum |  |  |  |  |  |  |  |
| stem cell factor [SCF] |  |  |  |  |  |  | could facilitate WBC and CD34<+> cell growth | can stimulate CD34<+> cell expansion | positively affected WBC and CD34<+> cell growth | stronger effects than the other cytokines | 0.387 10^6 WBC cells/ml | 0.162 10^6 CD34<+> cells/ml | facilitated WBC and CD34<+> cell growth |
| thrombopoietin [TPO] |  |  |  |  |  |  | could facilitate WBC and CD34<+> cell growth | can stimulate CD34<+> cell expansion | positively affected WBC and CD34<+> cell growth | stronger effects than the other cytokines | 0.413 10^6 WBC cells/ml | 0.172 10^6 CD34<+> cells/ml | facilitated WBC and CD34<+> cell growth |
| B1 |  |  |  |  |  |  | could facilitate WBC and CD34<+> cell growth | can stimulate CD34<+> cell expansion | positively affected WBC and CD34<+> cell growth | stronger effects than the other cytokines | 0.237 10^6 WBC cells/ml | 0.110 10^6 CD34<+> cells/ml | facilitated WBC and CD34<+> cell growth |
| B2 |  |  |  |  |  |  |  |  |  | inhibited WBC growth |  |  |  |
| B3 |  |  |  |  |  |  | could facilitate WBC and CD34<+> cell growth | less positive effects than TPO, IL-3, SCF and FL | positively affected WBC and CD34<+> cell growth |  |  |  |  |
